The values that follow come from patent US20080255169A1 (priority 2004, published 2008).

This test has as its target α2β1 integrin (Homo sapiens, UniProt P05556+P17301). As to the kind of experiment: Cell adhesion assay. It is filed as cell-based. As to conditions: for Emax: read-out: Emax in cell adhesion assay.
Where [1] appears, read: read-out: EC50 in cell adhesion assay.

Where two headings read alike, the source gives them in different places.

Chain of α2β1 integrin (P17301 30-1181): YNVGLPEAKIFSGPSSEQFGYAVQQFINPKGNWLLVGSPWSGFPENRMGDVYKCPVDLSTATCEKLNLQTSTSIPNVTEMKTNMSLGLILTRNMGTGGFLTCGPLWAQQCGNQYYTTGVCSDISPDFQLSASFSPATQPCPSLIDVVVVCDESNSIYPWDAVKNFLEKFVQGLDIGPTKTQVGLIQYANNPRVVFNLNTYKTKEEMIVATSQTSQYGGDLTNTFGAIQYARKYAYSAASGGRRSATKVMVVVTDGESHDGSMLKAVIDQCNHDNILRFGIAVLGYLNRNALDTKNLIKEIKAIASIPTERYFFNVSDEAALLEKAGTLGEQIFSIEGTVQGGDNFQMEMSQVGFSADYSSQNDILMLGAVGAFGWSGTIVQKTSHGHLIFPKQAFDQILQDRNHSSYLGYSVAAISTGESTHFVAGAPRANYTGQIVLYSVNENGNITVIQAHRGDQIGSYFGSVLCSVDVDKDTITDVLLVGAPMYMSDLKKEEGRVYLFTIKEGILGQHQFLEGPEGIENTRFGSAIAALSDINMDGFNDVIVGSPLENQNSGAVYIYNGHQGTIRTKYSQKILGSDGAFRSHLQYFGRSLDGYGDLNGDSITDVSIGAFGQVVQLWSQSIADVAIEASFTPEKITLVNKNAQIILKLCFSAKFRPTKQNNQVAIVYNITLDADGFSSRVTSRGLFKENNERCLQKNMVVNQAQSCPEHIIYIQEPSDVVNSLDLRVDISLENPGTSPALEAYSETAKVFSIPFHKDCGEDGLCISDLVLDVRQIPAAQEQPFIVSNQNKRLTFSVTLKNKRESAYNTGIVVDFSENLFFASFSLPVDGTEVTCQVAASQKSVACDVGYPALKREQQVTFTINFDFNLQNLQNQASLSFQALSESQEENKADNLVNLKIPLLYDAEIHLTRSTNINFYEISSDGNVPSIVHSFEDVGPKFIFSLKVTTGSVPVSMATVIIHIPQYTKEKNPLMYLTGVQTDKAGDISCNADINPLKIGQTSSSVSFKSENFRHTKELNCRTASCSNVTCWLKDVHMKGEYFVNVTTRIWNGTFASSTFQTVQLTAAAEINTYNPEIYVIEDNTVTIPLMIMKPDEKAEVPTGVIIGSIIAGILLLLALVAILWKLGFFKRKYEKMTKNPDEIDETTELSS
Chain of α2β1 integrin (P05556 21-798 partner): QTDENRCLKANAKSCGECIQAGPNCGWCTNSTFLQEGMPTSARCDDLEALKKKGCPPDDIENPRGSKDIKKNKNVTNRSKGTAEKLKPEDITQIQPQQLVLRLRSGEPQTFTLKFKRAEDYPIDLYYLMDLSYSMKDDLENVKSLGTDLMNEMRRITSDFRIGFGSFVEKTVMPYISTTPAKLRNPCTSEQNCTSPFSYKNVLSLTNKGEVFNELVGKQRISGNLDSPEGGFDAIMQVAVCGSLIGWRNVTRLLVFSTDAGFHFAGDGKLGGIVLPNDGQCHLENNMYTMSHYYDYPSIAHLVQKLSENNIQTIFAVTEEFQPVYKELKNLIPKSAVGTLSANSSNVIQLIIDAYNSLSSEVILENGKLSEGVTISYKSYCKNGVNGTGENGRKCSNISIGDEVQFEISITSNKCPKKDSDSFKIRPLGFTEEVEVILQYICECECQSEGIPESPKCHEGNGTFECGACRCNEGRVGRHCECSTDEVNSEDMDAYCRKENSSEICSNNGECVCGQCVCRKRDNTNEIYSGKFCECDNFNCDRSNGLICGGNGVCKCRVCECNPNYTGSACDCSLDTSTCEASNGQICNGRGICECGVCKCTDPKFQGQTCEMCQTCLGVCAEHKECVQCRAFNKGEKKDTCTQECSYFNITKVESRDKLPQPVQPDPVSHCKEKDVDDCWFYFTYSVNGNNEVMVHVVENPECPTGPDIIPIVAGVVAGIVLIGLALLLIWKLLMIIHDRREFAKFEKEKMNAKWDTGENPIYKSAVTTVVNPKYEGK

Take `COc1cc(OC)nc(-c2ccc(NS(=O)(=O)c3ccc4ccccc4c3)cc2)n1` [Compound 266]: the Emax (as a rule, the size of the effect at its maximum, as opposed to the concentration needed) (concentration not given) was 70%. The EC50 (in general, the concentration giving half of the maximal effect) under setting [1] stood at 18 µM.

`CN(C)c1ccc(NS(=O)(=O)c2cccc(-c3cccc(O)c3)c2)cc1` [Compound 205]: the Emax at 50 µM was found to be 84%. The EC50 under setting [1] is 20 µM. Regarding `Cc1nc2cc(N(C)S(=O)(=O)c3cccc(-c4ccc(F)cc4)c3)ccc2o1` [Compound 295], the Emax (concentration not given) turned out to be 56%. Under setting [1], the EC50 came out at 29 µM. Taken in the same sequence, the figures for `Cc1nc2cc(NS(=O)(=O)c3cccc(-c4ccc(F)cc4)c3)ccc2s1` [Compound 188, 4′-fluoro-biphenyl-3-sulfonic acid (2-methyl-benzothiazol-5-yl)-amide] were 81% and 36 µM. The matching figures for `Cc1cc(C)nc(N(C)c2ccc(N(C)S(=O)(=O)c3ccc(Cl)cc3Cl)cc2)n1` [Compound 302]: 57% and 24 µM.

For `CN(C)c1ccc(N(C)S(=O)(=O)c2ccc(Cl)cc2Cl)cc1` [Compound 223, 2,4-dichloro-N-[4-(dimethylamino)phenyl]-N-methyl benzenesulfonamide], the Emax (concentration not given) is 82%. Further, under setting [1], the EC50 was determined as 13 µM. Taken in the same sequence, the figures for `Cc1cc2c(n1-c1ccc(NS(=O)(=O)c3ccc(-c4cnco4)s3)cc1)CC(C)(C)CC2=O` [Compound 258] were 66% and 40 µM.

`Cc1cc2cc(NS(=O)(=O)c3ccc4oc(=O)ccc4c3)ccc2[nH]1` [Compound 234]: the maximal effect (Emax) (concentration not given) is 85%. Also, the EC50 under setting [1] is 35 µM. Regarding `Cc1cc(F)ccc1-c1ccc(S(=O)(=O)Nc2ccc(N(C)C)cc2)s1` [Compound 307], the maximal response (Emax) at 50 µM was found to be 67%. Moreover, the half-maximal effective concentration (EC50) under setting [1] was found to be 20 µM. `Cc1cc2cc(N(C)S(=O)(=O)c3cccc(Br)c3)ccc2[nH]1` [Compound 209] came in with an Emax at 50 µM of 64%. The EC50 under setting [1] came out at 35 µM. As for `CC(C)(C)c1cc2cc(NS(=O)(=O)c3ccc(Cl)cc3)ccc2[nH]1` [Compound 173], the maximal effect (Emax) at 40 µM is 59%. For the same compound, under setting [1], the EC50 was found to be 35 µM. As to `CN(C)c1ccc(NS(=O)(=O)c2ccc(-c3ccc(F)cc3)s2)cc1` [Compound 306], the maximum response (Emax) at 50 µM turned out to be 67%. Also, the 50% effective concentration (EC50) under setting [1] worked out at 24 µM. Take `O=S(=O)(Nc1ccc2ncsc2c1)c1cccc(Br)c1` [Compound 139, N-benzolthiazol-6-yl-3-bromo-benzenesulfonamide]: the Emax (concentration not given) turned out to be 75%. Further, the concentration for a half-maximal effect (EC50) under setting [1] was determined as 46 µM. Taken in the same sequence, the figures for `Cc1nc2ccc(NS(=O)(=O)c3cccc(-c4ccc(F)cc4)c3)cc2o1` [Compound 187, 4′-fluoro-biphenyl-3-sulfonic acid (2-methyl-benzooxazol-6-yl)-amide] were 87% and 18 µM. Consider `O=S(=O)(Nc1ccc(-n2ccnc2)cc1)c1cccc(-c2ccc(F)cc2)c1` [Compound 300], for which the maximal effect (Emax) (concentration not given) came to 50%. The EC50 under setting [1] came out at 45 µM. Taken in the same sequence, the figures for `O=S(=O)(Nc1ccc(-n2cccn2)cc1)c1cccc(-c2ccc(F)cc2)c1` [Compound 297] were 80% and 26 µM.

As for `Cc1cc2cc(NS(=O)(=O)c3cccc(Br)c3)ccc2[nH]1` [Compound 197, 3-bromo-N-(2-methyl-1H-indol-5-yl)-benzenesulfonamide], the maximum response (Emax) (concentration not given) stood at 74%.

For `Cc1cc(C)nc(Nc2ccc(NS(=O)(=O)c3ccc(Cl)cc3Cl)cc2)n1` [Compound 182], the Emax (concentration not given) came out at 77%. The EC50 under setting [1] is 25 µM. The matching figures for `O=S(=O)(Nc1ccc2c(c1)OCO2)c1cccc(-c2ccc(F)cc2)c1` [Compound 186, 4′-fluoro-biphenyl-3-sulfonic acid benzo[1,3]dioxol-5-yl-amide]: 91% and 19 µM. Taken in the same sequence, the figures for `CSc1nc2ccc(NS(=O)(=O)c3ccc(Cl)cc3Cl)cc2s1` [Compound 132] were 90% and 40 µM.

For `Cc1cc2c(n1-c1ccc(NS(=O)(=O)c3ccc(C(F)(F)F)cc3Cl)cc1)CC(C)(C)CC2=O` [Compound 283, 2-chloro-4-trifluoromethyl-N-[4-(2,6,6-trimethyl-4-oxo-4,5,-6,7-tetrahydro-indol-1-yl)-phenyl]-benzenesulfonamide], the Emax (concentration not given) was 63%. The EC50 under setting [1] amounted to 23 µM. The matching figures for `CN(c1ccc2c(c1)c1ccccc1n2C)S(=O)(=O)c1ccc(Cl)cc1Cl` [Compound 320]: 45% and 10 µM.

Take `CN(C)c1ccc(NS(=O)(=O)c2cc(-c3ccc(F)cc3)c(F)cc2F)cc1` [Compound 202]: the Emax (concentration not given) was 91%. Further, the EC50 under setting [1] amounted to 27 µM. Taken in the same sequence, the figures for `O=S(=O)(Nc1ccc2[nH]ccc2c1)c1ccc(Cl)cc1Cl` [Compound 134, 2,4-dichloro-N-(1H-indol-5-yl)-benzenesulfonamide] were 40% and 10 µM. In turn, `O=S(=O)(Nc1ccc(-n2cccc2)cc1)c1ccc(Cl)cc1Cl` [Compound 163, 2,4-dichloro-N-(4-pyrrol-1-yl-phenyl)-benzenesulfonamide] had an Emax at 50 µM of 66%. For the same compound, the EC50 under setting [1] was determined as 32 µM.

For the compound `O=S(=O)(Nc1ccc(Nc2nc(Cl)nc(Cl)c2Cl)cc1)c1ccc(Cl)cc1` [Compound 170], the maximum response (Emax) at 40 µM came out at 85%. In addition, under setting [1], the 50% effective concentration (EC50) came out at 24 µM. The compound `Cc1cc2cc(NS(=O)(=O)c3cccc(C(F)(F)F)c3)ccc2[nH]1` [Compound 230] gave an Emax at 50 µM of 76%. Moreover, the 50% effective concentration (EC50) under setting [1] was > 30 µM.

Take `Cn1ccc2ccc(NS(=O)(=O)c3cccc(-c4ccc(F)cc4)c3)cc21` [Compound 284, 4′-fluoro-biphenyl-3-sulfonic acid (1-methyl-1H-indol-6-yl)-amide]: the maximal response (Emax) (concentration not given) is 69%. Besides, the EC50 under setting [1] is ~30 µM. Regarding `Cc1cc(C)nc(Nc2ccc(NS(=O)(=O)c3cccc(-c4ccc(F)cc4)c3)cc2)n1` [Compound 201], the Emax at 50 µM was 64%. Besides, under setting [1], the EC50 was found to be 36 µM. In turn, `CN(C)c1ccc(NS(=O)(=O)c2cc(-c3ccc(F)cc3)c(Cl)s2)cc1` [Compound 316, 5-chloro-4-(4-fluoro-phenyl)-thiophene-2-sulfonic acid (4-dimethylamino-phenyl)-amide] had an Emax at 50 µM of 87%. Also, the EC50 under setting [1] stood at 10 µM. Compound `COc1cc(OC)nc(-c2ccc(NS(=O)(=O)c3ccc(Cl)c(Cl)c3)cc2)n1` [Compound 255] gave a maximal effect (Emax) at 50 µM of 88%. Further, the EC50 under setting [1] amounted to 17 µM. As to `CN(C)c1ccc(NS(=O)(=O)c2cc(-c3ccc(F)cc3)c(-c3ccc(F)cc3)s2)cc1` [Compound 317], the Emax (concentration not given) turned out to be 45%. Moreover, the concentration giving a half-maximal response (EC50) under setting [1] amounted to 44 µM.

Regarding `CN(C)c1ccc(NS(=O)(=O)c2cc(Br)c(F)cc2F)cc1` [Compound 192, 5-bromo-N-[4-(dimethylamino)phenyl]-2,4-difluoro benzene sulfonamide], the maximal response (Emax) (concentration not given) worked out at 75%. The EC50 under setting [1] is 39 µM. On to `COc1cc(OC)nc(-c2ccc(NS(=O)(=O)c3ccc(Cl)cc3Cl)cc2)n1` [Compound 164, 2,4-dichloro-N-[4-(4,6-dimethoxy-pyrimidin-2-yl)-phenyl]-benzenesulfonamide], for which the Emax at 50 µM stood at 85%. Also, the EC50 under setting [1] is 21 µM. On to `Cc1nc2cc(NS(=O)(=O)c3cccc(-c4ccc(F)cc4)c3)ccc2o1` [Compound 190, 4′-fluoro-biphenyl-3-sulfonic acid (2-methyl-benzooxazol-5-yl)-amide], for which the Emax (concentration not given) was found to be 76%. In addition, the EC50 under setting [1] came to 25 µM. Taken in the same sequence, the figures for `CN(C)c1ccc(NS(=O)(=O)c2cccc(-c3cccc(C#N)c3)c2)cc1` [Compound 275] were 57% and 26 µM. Taken in the same sequence, the figures for `CN(C)c1ccc(NS(=O)(=O)c2cccc(-c3cccc(F)c3)c2)cc1` [Compound 203] were 86% and 19 µM. Taken in the same sequence, the figures for `COc1cc(OC)nc(-c2ccc(NS(=O)(=O)c3cccc(-c4ccc(F)cc4)c3)cc2)n1` [Compound 235] were 85% and 20 µM.

With `CN(C)c1ccc(N(C)S(=O)(=O)c2cccc(-c3ccc(F)cc3)c2)cc1` [Compound 282, 4′-fluoro-biphenyl-3-sulfonic acid (4-dimethylaminophenyl)-methylamide], the maximal response (Emax) at 50 µM is 59%. Also, under setting [1], the EC50 amounted to 7 µM. Regarding `Cc1cc2c(n1-c1ccc(NS(=O)(=O)c3ccc(Cl)c(Cl)c3)cc1)CC(C)(C)CC2=O` [Compound 269], under “concentration not given”, the Emax is 64%. Also, under setting [1], the 50% effective concentration (EC50) came to 19 µM. Regarding `O=S(=O)(Nc1ccc2ncsc2c1)c1cccc(-c2ccc(F)cc2)c1` [Compound 189, 4′-fluoro-biphenyl-3-sulfonic acid benzothiazol-6-ylamide], the Emax (concentration not given) worked out at 76%. For the compound `O=S(=O)(Nc1ccc(-n2cnc(Cl)c2Cl)cc1)c1cccc(-c2ccc(F)cc2)c1` [Compound 299], where the note is “concentration not given”, the maximum response (Emax) was found to be 79%. In addition, the concentration giving a half-maximal response (EC50) under setting [1] came to 9.6 µM.

Turning to `COc1cc(OC)nc(-c2ccc(NS(=O)(=O)c3ccc(-c4cnco4)s3)cc2)n1` [Compound 286, 5-oxazol-5-yl-thiophene-2-sulfonic acid [4-(4,6-dimethoxypyrimidin-2-yl)-phenyl]-amide], the maximum response (Emax) (concentration not given) worked out at 72%. In addition, the 50% effective concentration (EC50) under setting [1] was 37 µM. Taken in the same sequence, the figures for `Cc1cc(C)nc(N(C)c2ccc(NS(=O)(=O)c3ccc(Cl)cc3Cl)cc2)n1` [Compound 50, 2,4-dichloro-N-{4-[(4,6-dimethylpyrimidin-2-yl)(methyl)amino]phenyl}benzenesulphonamide] were 60% and 17 µM.

As for `COc1cccc(-c2cccc(S(=O)(=O)Nc3ccc(N(C)C)cc3)c2)c1` [Compound 204], under “concentration not given”, the Emax is 63%. The EC50 under setting [1] is ~25 µM. Taken in the same sequence, the figures for `Cc1nc2ccc(NS(=O)(=O)c3cccc(Br)c3)cc2s1` [Compound 195] were 60% and 49 µM. Taken in the same sequence, the figures for `O=S(=O)(Nc1ccc(-n2cnc(Cl)c2Cl)cc1)c1ccc2ccccc2c1` [Compound 171] were 79% and 20 µM. For the compound `CN(C)c1ccc(NS(=O)(=O)c2cccc(-c3ccc(F)c(F)c3)c2)cc1` [Compound 263], the maximal response (Emax) is 88%. The same compound came in with an EC50 (EC50 in cell adhesion assay) of 26 µM.
